According to the NIST ThermoML archive (doi:10.1021/je034102r):

Test: molar heat capacity at constant pressure
Conditions: 101.33 kPa, Liquid, heat bridge-scanning calorimeter

CCCCn1cc[n+](C)c1.F[P-](F)(F)(F)(F)F [1-butyl-3-methylimidazolium hexafluorophosphate]
Conditions | molar heat capacity at constant pressure [J/K/mol]
408.32 K | 474.58
408.61 K | 473.73
408.74 K | 473.45
408.88 K | 473.45
409.01 K | 473.45
409.14 K | 473.73
409.27 K | 474.02
409.4 K | 474.02
409.53 K | 473.73
409.67 K | 473.73
409.8 K | 474.3
409.93 K | 474.58
410.22 K | 475.15
410.35 K | 474.58
410.48 K | 474.3
410.61 K | 474.3
410.74 K | 474.58
410.88 K | 474.3
411.01 K | 474.3
411.14 K | 474.02
411.27 K | 473.73
411.58 K | 475.72
411.71 K | 475.72
411.84 K | 476.01
411.97 K | 476.01
412.11 K | 475.72
412.24 K | 475.15
412.37 K | 474.58
412.5 K | 474.87
412.63 K | 474.58
412.77 K | 475.15
412.9 K | 475.15
413.18 K | 474.58
413.31 K | 474.58
413.45 K | 474.3
413.58 K | 474.3
413.71 K | 474.3
413.84 K | 474.3
413.97 K | 474.02
414.11 K | 474.02
414.24 K | 474.3
414.53 K | 474.58
414.67 K | 475.44
414.8 K | 476.01
414.93 K | 476.29
415.07 K | 476.29
415.2 K | 476.57
415.33 K | 476.01
415.47 K | 476.01
415.6 K | 475.72
415.73 K | 475.44
415.87 K | 475.44
416.15 K | 475.44
416.29 K | 475.44
416.42 K | 475.15
416.55 K | 474.87
416.69 K | 475.15
416.82 K | 475.15
416.95 K | 475.72
417.08 K | 476.01
417.22 K | 477.43
417.52 K | 476.57
417.65 K | 476.86
417.8 K | 476.57
417.93 K | 476.29
418.06 K | 476.29
418.2 K | 475.72
418.33 K | 475.72
418.46 K | 475.72
418.6 K | 475.44
418.73 K | 476.01
418.86 K | 477.14
419.15 K | 478.56
419.29 K | 477.71
419.42 K | 477.14
419.55 K | 476.57
419.69 K | 476.57
419.82 K | 476.29
419.96 K | 476.57
420.09 K | 476.57
420.22 K | 476.29
420.52 K | 477.14
420.66 K | 476.57
420.79 K | 477.14
420.92 K | 477.14
421.06 K | 477.14
421.19 K | 477.43
421.33 K | 476.86
421.46 K | 476.86
421.59 K | 476.86
421.73 K | 476.57
421.86 K | 476.57
422.15 K | 477.14
422.28 K | 477.99
422.42 K | 478.56
